Publication PMC2566858 (Nucleic Acids Research, 2008)

Legend:
rGyr_hel [1] = target: T1, rGyr_hel (Thermotoga maritima, UniProt O51934); assay: fluorescence equilibrium titration; assay type: binding
T1 sequence (O51934 59-541): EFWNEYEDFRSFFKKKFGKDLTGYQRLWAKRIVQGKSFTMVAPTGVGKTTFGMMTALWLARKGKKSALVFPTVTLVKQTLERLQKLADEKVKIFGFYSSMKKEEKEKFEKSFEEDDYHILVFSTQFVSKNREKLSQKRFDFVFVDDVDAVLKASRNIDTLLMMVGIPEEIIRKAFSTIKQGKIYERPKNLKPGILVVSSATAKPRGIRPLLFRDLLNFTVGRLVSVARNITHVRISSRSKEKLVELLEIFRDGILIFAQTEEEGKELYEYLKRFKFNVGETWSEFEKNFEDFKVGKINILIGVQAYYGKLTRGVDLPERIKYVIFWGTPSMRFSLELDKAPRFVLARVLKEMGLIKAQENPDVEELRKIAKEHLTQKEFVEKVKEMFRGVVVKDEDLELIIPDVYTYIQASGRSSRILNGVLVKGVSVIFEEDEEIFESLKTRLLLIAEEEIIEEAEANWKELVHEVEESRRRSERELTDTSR

rGyr_fl = rGyr_fl (Thermotoga maritima, UniProt O51934, K106Q/Y851F); assay: biochemical
Chain of rGyr_fl (O51934 whole entry K106Q/Y851F): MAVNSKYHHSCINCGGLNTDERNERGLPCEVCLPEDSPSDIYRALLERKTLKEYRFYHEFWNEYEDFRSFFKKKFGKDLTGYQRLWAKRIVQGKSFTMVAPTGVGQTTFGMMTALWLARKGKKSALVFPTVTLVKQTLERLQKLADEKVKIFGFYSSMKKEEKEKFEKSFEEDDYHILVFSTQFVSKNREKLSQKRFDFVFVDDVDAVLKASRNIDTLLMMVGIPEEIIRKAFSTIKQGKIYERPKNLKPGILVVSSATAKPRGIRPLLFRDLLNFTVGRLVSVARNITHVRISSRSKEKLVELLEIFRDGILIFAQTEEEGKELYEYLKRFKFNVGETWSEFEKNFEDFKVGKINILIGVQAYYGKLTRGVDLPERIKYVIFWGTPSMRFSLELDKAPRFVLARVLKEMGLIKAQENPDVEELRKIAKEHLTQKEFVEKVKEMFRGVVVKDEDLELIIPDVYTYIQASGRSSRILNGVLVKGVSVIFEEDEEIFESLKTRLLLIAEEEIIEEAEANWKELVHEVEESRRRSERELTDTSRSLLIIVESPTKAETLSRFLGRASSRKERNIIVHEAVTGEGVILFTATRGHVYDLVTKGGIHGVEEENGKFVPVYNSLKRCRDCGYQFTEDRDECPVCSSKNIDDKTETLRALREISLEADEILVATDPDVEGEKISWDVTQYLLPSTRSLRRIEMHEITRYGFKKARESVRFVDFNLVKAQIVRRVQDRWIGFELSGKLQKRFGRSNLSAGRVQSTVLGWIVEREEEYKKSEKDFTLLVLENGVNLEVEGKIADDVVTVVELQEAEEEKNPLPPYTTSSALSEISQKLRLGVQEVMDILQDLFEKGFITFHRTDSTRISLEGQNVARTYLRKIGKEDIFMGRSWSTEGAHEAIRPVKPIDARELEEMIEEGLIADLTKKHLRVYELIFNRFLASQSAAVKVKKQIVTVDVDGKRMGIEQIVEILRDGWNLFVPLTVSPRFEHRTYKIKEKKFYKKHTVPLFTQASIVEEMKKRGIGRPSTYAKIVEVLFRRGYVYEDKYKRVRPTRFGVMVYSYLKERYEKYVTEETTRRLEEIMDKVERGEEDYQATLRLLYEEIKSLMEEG

rGyr_hel [2] = target: rGyr_hel (Thermotoga maritima, UniProt O51934, K106Q); assay: biochemical
Chain of rGyr_hel (Thermotoga maritima, UniProt O51934, K106Q) (O51934 59-541 K106Q): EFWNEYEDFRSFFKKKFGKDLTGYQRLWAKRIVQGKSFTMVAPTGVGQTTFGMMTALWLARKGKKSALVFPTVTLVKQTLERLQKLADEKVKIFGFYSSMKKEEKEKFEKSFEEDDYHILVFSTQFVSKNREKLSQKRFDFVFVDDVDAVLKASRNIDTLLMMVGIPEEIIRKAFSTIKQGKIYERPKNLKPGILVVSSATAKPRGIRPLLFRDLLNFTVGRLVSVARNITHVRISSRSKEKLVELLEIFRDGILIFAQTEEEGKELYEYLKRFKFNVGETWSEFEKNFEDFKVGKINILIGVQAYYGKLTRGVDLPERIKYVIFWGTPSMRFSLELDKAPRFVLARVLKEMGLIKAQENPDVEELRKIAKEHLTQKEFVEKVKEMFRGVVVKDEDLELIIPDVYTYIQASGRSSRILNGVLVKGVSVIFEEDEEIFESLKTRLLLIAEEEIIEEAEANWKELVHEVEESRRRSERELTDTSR

| Structure (SMILES) | Kd (rGyr_hel [1]) [µM] | Kd (rGyr_fl) [µM] | Kd (rGyr_hel [2]) [µM] |
| --- | --- | --- | --- |
| Nc1ncnc2c1ncn2[C@@H]1O[C@H](COP(=O)(O)O)[C@@H](O)[C@H]1O [AMP] | 1600 ± 231 | – | – |
| Nc1ncnc2c1ncn2[C@@H]1O[C@H](COP(=O)(O)OP(=O)(O)OP(=O)(O)O)[C@@H](O)[C@H]1O [ATP] | – | 98 ± 12 | 570 ± 300 |
| Nc1ncnc2c1ncn2[C@@H]1O[C@H](COP(=O)(O)OP(=O)(O)O)[C@@H](O)[C@H]1O [ADP] | – | 36 ± 5 | 150 ± 85 |
